Data on 2 compounds can be found in ChEMBL document CHEMBL5108065 (J Med Chem, 2022).

Activity calls are given as the source filed them. No cut-off for these calls is given here.

The test system of series [1] is Plasmodium falciparum. In words: Antimalarial activity against blood stage Plasmodium infected in NSG mouse model assessed as parasite recrudescence by measuring parasitemia at 50 mg/kg, po measured 96 hrs by flow cytometry. The series is classed as functional, organism-based. Background: A flow cytometer gives signals particle by particle.
For series [2], the system named is Plasmodium falciparum. In words: Resistance development in asexual blood stage Plasmodium falciparum Dd2-B2 assessed as minimum inoculum of resistance at 3 times IC50 measured on day 30 using at 2 x 10^7 inoculum by SYBR dye based flow cytometry. The class given is functional, organism-based. The note with it: time 30.0 day.
Series [3] in a line: Drug metabolism in Cynomolgus monkey hepatocytes assessed as (S)-6-(2-chloro-3-((6-cyclopropylpyridin-3-yl)amino)phenyl)-2-imino-6-methyltetrahydropyrimidin-4(1H)-one metabolite formation. The series is classed as ADME, cell-based, Macaca fascicularis, Hepatocyte.
The nature of series [4]: AUC in Cynomolgus monkey blood at 10 mg/kg, po measured at 2 to 72 hrs by LC-MS/MS analysis. The series is classed as ADME, organism-based, Macaca fascicularis. Further details: dose 10 mg/kg, time 2-72 hrs, route po.
Series [5] is described as follows: Volume of distribution at steady state in Cynomolgus monkey blood at 1 mg/kg, iv measured at 2 to 72 hrs by LC-MS/MS analysis. The series is classed as ADME, organism-based, Macaca fascicularis. The note with it: whole blood, time 2-72 hrs, read-out: Vdss.
A short description of series [6]: Terminal half life in Cynomolgus monkey blood at 1 mg/kg, iv measured at 2 to 72 hrs by LC-MS/MS analysis. The class given is ADME, organism-based, Macaca fascicularis. The note with it: whole blood, time 2-72 hrs, read-out: beta t1/2 (converted).
Series [7] is described as follows: Cmax in Cynomolgus monkey blood at 10 mg/kg, po measured at 2 to 72 hrs by LC-MS/MS analysis. The class given is ADME, organism-based, Macaca fascicularis. Also noted: dose 10 mg/kg, time 2-72 hrs, route po. To be noted: whole blood.
Series [8] can be described thus: Toxicity in Han Wistar rat assessed as structural changes in retina at 250 to 1000 mg/kg, po administered every other day for 7 days. The class given is organism-based. To be noted: in vivo, 168 h, dose 250-1000 mg/kg, time 7 day.
In series [9] the test system is Plasmepsin X (Plasmodium falciparum). In words: Binding affinity to Plasmodium falciparum PMX assessed as dissociation constant by SPR analysis.
Series [10] is described as follows: Toxicity in Han Wistar rat assessed as auto-fluorescent granule accumulation in retinal epithelium at 250 to 1000 mg/kg, po administered every other day for 7 days. The series is classed as organism-based. The note with it: in vivo, 168 h, dose 250-1000 mg/kg, time 7 day.
A short description of series [11]: Cardiotoxicity in anesthetized guinea-pig assessed as QRS widening at 1600 nM. The series is classed as toxicity, Cavia porcellus. The note with it: 1.6 µM.
Series [12] has as its system Plasmodium falciparum. In words: Antiplasmodial activity against sensitive Plasmodium falciparum NF54 infected in human red blood cells assessed as reduction in [3H]-hypoxanthine incorporation pretreated for 48 hrs followed by [3H]-hypoxanthine addition measured after 24 hrs by scintillation counting method. The class given is functional, organism-based.
The nature of series [13]: fCmax in Han Wistar rat at 1000 mg/kg, po administered every other day for 7 days. The class given is ADME, organism-based. The note with it: in vivo, 168 h, time 7 day.

Consider `C[C@H]1C[C@@H](N2C(=N)N[C@](C)(c3cccc(Nc4ccc(C5CC5)nc4)c3Cl)CC2=O)CCO1`, for which the result in [1] and in series [2] was Active. Further, the Drug metabolism result in series [3] was “Metabolite_Detected”.

Usually AUC stands for the area under the concentration-time curve, a measure of exposure. The term Cmax denotes the maximum level reached in the sampled fluid or tissue. One may read the Kd as the free concentration of one partner at which half of the binding sites on the other are occupied at equilibrium, for simple one-to-one binding. The term IC50 denotes the concentration at which inhibition is half-maximal. The compound `C[C@H]1C[C@@H](N2C(=N)N[C@](C)(c3cccc(NC(=O)c4cccc(C#N)c4)c3Cl)CC2=O)CCO1` had an AUC in series [4] of 7.38 µM·h. The Vd in series [5] amounted to 3.07 L/kg. Besides, the half-life in series [6] is 4.1 h. This compound also registered a Cmax in [7] of 2560 nM. The Activity result in series [8], in [10] and in [11] was “Non-Toxic” throughout. Also, the dissociation constant Kd in series [9] came out at 0.0055 µM. Moreover, the IC50 in [12] was 0.0346 µM. In [13], the fCmax was found to be 11 µM.
